The supplement of paper PMC10883282

Key:
Assay in all cases: standardised AUC of viability dose-response curve (72 h) (fraction (0-1)); higher = less growth inhibition (more resistant)
KHOS-240S = tested on: KHOS-240S
In short: (§1)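 After 72 h with 2.5 µl of compound (compound-plate series 10 mM to 0.0002 mM), triplicate wells of sarcoma cell lines in 384-well plates were read with ATPLite, with viability scaled 1 (full) to 0 (none) and fitted with a four-parameter log-logistic model. The values give the standardised area under the dose-response curve in log-dose space from a modified drexplorer computeAUC. A value of 1 means no response and 0 means full response.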

G401 = tested on: G401
In short: as §1

SK-LMS-1 = tested on: SK-LMS-1
In short: as §1

SW1353 = tested on: SW1353
In short: as §1

A204 = tested on: A204
In short: as §1

HT1080 = tested on: HT1080
In short: as §1

SW872 = tested on: SW872
In short: as §1

SK-ES-1 = tested on: SK-ES-1
In short: as §1

MES-SA = tested on: MES-SA
In short: as §1

KHOS-NP = tested on: KHOS-NP
In short: as §1

HS729 = tested on: HS729
In short: as §1

SW684 = tested on: SW684
In short: as §1

RD = tested on: RD
In short: as §1

RD-ES = tested on: RD-ES
In short: as §1

SYO-1 = tested on: SYO-1
In short: as §1

VA-ES-BJ = tested on: VA-ES-BJ
In short: as §1

SW982 = tested on: SW982
In short: as §1

Cc1cc(F)c(C(=O)Nc2cccc(-c3nncn3C(C)C)n2)cc1-n1cnc(C2CC2)c1 [SELONSERTIB]
standardised AUC (KHOS-240S): 0.977
standardised AUC (G401): 0.969
standardised AUC (SK-LMS-1): 0.988
standardised AUC (SW1353): 0.999
standardised AUC (A204): 0.94
standardised AUC (HT1080): 1
standardised AUC (SW872): 1
standardised AUC (SK-ES-1): 0.953
standardised AUC (MES-SA): 0.959
standardised AUC (KHOS-NP): 0.962
standardised AUC (HS729): 0.992
standardised AUC (SW684): 0.981
standardised AUC (RD): 0.995
standardised AUC (RD-ES): 0.985
standardised AUC (SYO-1): 0.957
standardised AUC (VA-ES-BJ): 0.976
standardised AUC (SW982): 1

Cn1cnc2c(F)c(Nc3ccc(Br)cc3Cl)c(C(=O)NOCCO)cc21 [SELUMETINIB]
standardised AUC (KHOS-240S): 0.89
standardised AUC (G401): 0.904
standardised AUC (SK-LMS-1): 0.748
standardised AUC (SW1353): 0.861
standardised AUC (A204): 0.953
standardised AUC (HT1080): 0.816
standardised AUC (SW872): 0.79
standardised AUC (SK-ES-1): 0.977
standardised AUC (MES-SA): 0.919
standardised AUC (KHOS-NP): 0.782
standardised AUC (HS729): 0.955
standardised AUC (SW684): 0.931
standardised AUC (RD): 0.784
standardised AUC (RD-ES): 0.986
standardised AUC (SYO-1): 0.902
standardised AUC (VA-ES-BJ): 0.887
standardised AUC (SW982): 0.926

CO[C@H]1C[C@@H]2CC[C@@H](C)[C@@](O)(O2)C(=O)C(=O)N2CCCC[C@H]2C(=O)O[C@H]([C@H](C)C[C@@H]2CC[C@@H](OC(=O)C(C)(CO)CO)[C@H](OC)C2)CC(=O)[C@H](C)/C=C(\C)[C@@H](O)[C@@H](OC)C(=O)[C@H](C)C[C@H](C)/C=C/C=C/C=C/1C [TEMSIROLIMUS]
standardised AUC (KHOS-240S): 0.854
standardised AUC (G401): 0.763
standardised AUC (SK-LMS-1): 0.64
standardised AUC (SW1353): 0.883
standardised AUC (A204): 0.592
standardised AUC (HT1080): 0.94
standardised AUC (SW872): 0.741
standardised AUC (SK-ES-1): 0.647
standardised AUC (MES-SA): 0.511
standardised AUC (KHOS-NP): 0.934
standardised AUC (HS729): 0.887
standardised AUC (SW684): 0.933
standardised AUC (RD): 0.731
standardised AUC (RD-ES): 0.754
standardised AUC (SYO-1): 0.81
standardised AUC (VA-ES-BJ): 0.588
standardised AUC (SW982): 0.743
